Experimental data taken from US9862684B2, “Modulation of K2P channels” (The Regents of the University of California, priority 2013, dated 2018).

Assays:
[1] = biological target: T1, K2P2.1 (TREK-1) (Mus musculus, UniProt P97438); experiment: Two-electrode voltage clamp of Xenopus oocytes expressing K2P2.1 (TREK-1); type: cell-based, Murine; conditions: Xenopus oocytes; for effect on K2P2.1 (TREK-1) function / activity (in words): two-electrode voltage clamp
T1 construct: expressed in transfected cells; host or cells: Xenopus oocytes (cRNA injection, pGEMHE/pMO)
T1 sequence (P97438 1-411 isoform P97438-2): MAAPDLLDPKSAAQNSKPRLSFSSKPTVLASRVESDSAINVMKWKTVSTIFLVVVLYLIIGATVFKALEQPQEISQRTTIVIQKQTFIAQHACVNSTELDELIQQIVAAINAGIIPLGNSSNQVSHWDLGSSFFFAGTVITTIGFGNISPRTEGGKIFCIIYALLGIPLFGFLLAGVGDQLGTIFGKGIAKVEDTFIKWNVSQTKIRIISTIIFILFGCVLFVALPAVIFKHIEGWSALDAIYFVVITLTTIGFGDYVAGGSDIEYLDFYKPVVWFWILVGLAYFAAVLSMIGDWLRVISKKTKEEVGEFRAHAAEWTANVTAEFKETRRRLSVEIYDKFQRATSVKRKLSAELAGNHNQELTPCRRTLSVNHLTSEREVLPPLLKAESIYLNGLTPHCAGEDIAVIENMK
Procedure: (§1) Two-electrode voltage clamp recordings were performed from defolliculated stage V-VI Xenopus oocytes 24-48 hours after injection with 0.015-6.0 ng cRNA, using microelectrodes (0.3-3.0 MΩ) filled with 3M KCl. […] Recording solutions (mM): 2K (96 NaCl, 2 KCl, 1.8 CaCl2, 2 MgCl2), 90K (90 KCl, 8 NaCl, 1.8 CaCl2, 2 MgCl2), were buffered 5 mM HEPES pH 7.4. For K2P recordings, currents we elicited by a 1 second long ramp from −150 to +50 mV from a holding potential of −80 mV (2K), or −100 to +50 mV from a holding potential of 0 mV (90K). For KCNQ2 recordings, currents were elicited by a step protocol from −120 to 60 mV, in 20 mV increments, from a holding potential of −80 mV. […] Currents were elicited by a 1 second long ramp from −150 to +50 mV from a holding potential of −80 mV.

[2] = biological target: T2, TREK-1 (Mus musculus, UniProt P97438); experiment: Modulation of TREK-1 by select compounds (agonist activity), Table 3; type: cell-based, Murine; conditions: for EC50: agonist activity on TREK-1
T2 construct: expressed in transfected cells
T2 sequence (P97438 1-411 isoform P97438-2): T1 sequence (P97438 1-411 isoform P97438-2)
Procedure: as §1

Structure (SMILES)	comments (comparison with ML67-33 / ML67-142, dose-response remark) [2]	EC50 [2]	% activity at 50 μM [2]	also measured
O=C(O)CCn1c2ccccc2c2ccccc21 [ML67-2, 3-carbazol-9-ylpropanoic acid]				Emax (fold) at 500 μM ([1]; at 500 μM): 1.3 ± 0.1 at 500 μM fold; effect on K2P2.1 (TREK-1) function / activity (in words) [1]: reduced activity
O=C(O)CCn1c2ccccc2c2cc(I)ccc21 [ML67-14, 3-(3-iodocarbazol-9-yl)propanoic acid]	No plateau	> 500 µM		
O=C(O)CCCn1c2ccc(Cl)cc2c2cc(Cl)ccc21 [ML67-15, 4-(3,6-dichlorocarbazol-9-yl) butanoic acid]				Emax (fold) at 200 μM ([1]; at 200 μM): 4.7 ± 0.9 at 200 μM fold; effect on K2P2.1 (TREK-1) function / activity (in words) [1]: did not significantly improve potency
Clc1ccc2c(c1)c1cc(Cl)ccc1n2CCc1nnn[nH]1 [ML67-18, 3,6-dichloro-9-[2-(1H-tetrazol-5-yl)ethyl]carbazole]		125 µM		Emax (fold) ([1]; fold over basal current, no concentration stated): ~18 fold
O=C(O)CCN1c2ccc(Cl)cc2Sc2cc(Cl)ccc21 [ML67-26, 3-(3,7-dichloro-phenothiazin-10-yl)propanoic acid]	No plateau	~200 µM		
Clc1ccc2c(c1)c1cc(Cl)ccc1n2[C@H]1C[C@H](c2nnn[nH]2)C1 [ML67-30, 3,6-dichloro-9-[3-(1H-tetrazol-5-yl)cyclobutyl] carbazole (trans)]		< 125 µM		
Brc1ccc2c3ccc(Br)cc3n(CCc3nnn[nH]3)c2c1 [ML67-34, 2,7-dibromo-9-[2-(1H-tetrazol-5-yl)ethyl]carbazole]	Not better than ML67-33	> 38.5 µM	13.4%	
c1ccc2c(c1)Oc1ccccc1N2CCc1nnn[nH]1 [ML67-35, 10-[2-(1H-tetrazol-5-yl)ethyl] phenoxazine]	Not better than ML67-33	> 38.5 µM	17.8%	
c1ccc2c(c1)Sc1ccccc1N2CCc1nnn[nH]1 [ML67-36, 10-[2-(1H-tetrazol-5-yl)ethyl] phenothiazine]		> 38.5 µM		
Brc1ccc2c(c1)Sc1cc(Br)ccc1N2CCc1nnn[nH]1 [ML67-37, 3,7-dibromo-10-[2-(1H-tetrazol-5-yl)ethyl] phenothiazine]	Not better than ML67-33	> 38.5 µM	96%	
Brc1ccc2c(c1)Oc1cc(Br)ccc1N2CCc1nnn[nH]1 [ML67-38, 3,7-dibromo-10-[2-(1H-tetrazol-5-yl)ethyl] phenoxazine]	Not better than ML67-33	> 38.5 µM	68.8%	
CC1(C)c2ccccc2N(CCc2nnn[nH]2)c2ccccc21 [ML67-39, 9,9-dimethyl-10-[2-(1H-tetrazol-5-yl)ethyl]acridine]	Not better than ML67-33	> 38.5 µM	29.2%	
CC1(C)c2cc(Br)ccc2N(CCc2nnn[nH]2)c2ccc(Br)cc21 [ML67-137, 2,7-dibromo-9,9-dimethyl-10-[2-(1H-tetrazol-5-yl)ethyl]acridine]			100%	Emax (fold) at 100 μM ([1]; at 100 μM (FIG. 4, 7 legends), marked ** in Table 1, footnote not given): 9.2 ± 1.4** fold; effect on K2P2.1 (TREK-1) function / activity (in words) [1]: did not significantly improve activity; % activity at 10 μM ([2]; 10 μM): 80%
Clc1ccc2c(c1)C1(CCCC1)c1cc(Cl)ccc1N2CCc1nnn[nH]1 [ML67-138, 2,7-dichloro-10-[2-(1H-tetrazol-5-yl)ethyl]spiro [acridine-9,1′-cyclopentane]]		18.3 µM		
Clc1ccc2c(c1)C1(CCOCC1)c1cc(Cl)ccc1N2CCc1nnn[nH]1 [ML67-139, 2,7-dichloro-10-[2-(1H-yl)ethyl]spiro [acridine-9,4′-oxane]]	Not better than ML67-33	> 38.5 µM	60.7%	
O=C(O)CCN1c2ccc(Cl)cc2C2(CCCCC2)c2cccc(Cl)c21 [ML67-140, 3-(2,5-dichlorospiro [acridine-9,1′-cyclohexane]-10-yl)propanoic acid]	Not better than ML67-33	> 38.5 µM	57.7%	
O=C(O)CCN1c2ccc(Cl)cc2C2(CCCCC2)c2cc(Cl)ccc21 [ML67-141, 3-(2,7-dichlorospiro [acridine-9,1′-cyclohexane]-10-yl)propanoic acid]	Better than ML67-33; not better than (ML67-142)	8.6 to 38.5 µM		
Clc1ccc2c(c1)C1(CCCCC1)c1cc(Cl)ccc1N2CCc1nnn[nH]1 [ML67-142, 2,7-dichloro-10-[2-(1H-tetrazol-5-yl)ethyl]spiro [acridine-9,1′-cyclohexane]]		8.6 µM		
Clc1ccc2c(c1)C1(CCCCC1)c1cccc(Cl)c1N2CCc1nnn[nH]1 [ML67-143, 2,5-dichloro-10-[2-(1H-tetrazol-5-yl)ethyl]spiro [acridine-9,1′-cyclohexane]]	Better than ML67-33; Not better than (ML67-142)	8.6 to 38.5 µM		
c1ccc2c(c1)N(CCc1nnn[nH]1)c1ccccc1C21CCCCC1 [ML67-144, 10-[2-(1H-tetrazol-5-yl)ethyl]spiro [acridine-9,1′-cyclohexane]]	Not better than ML67-33	> 38.5 µM	32.3%	
Brc1ccc2c(c1)C1(CCCCC1)c1cc(Br)ccc1N2CCc1nnn[nH]1 [ML67-145, 2,7-dibromo-10-[2-(1H-1,2,3,4-tetrazol-5-yl)ethyl]-10H-spiro[acridine-9,1′-cyclohexane]]	Better than ML67-33; Not better than (ML67-142)	8.6 to 38.5 µM		
OCc1ccc2c(c1)C1(CCCCC1)c1cc(Br)ccc1N2CCc1nnn[nH]1 [ML67-146, 2-bromo-10-[2-(1H-1,2,3,4-tetrazol-5-yl)ethyl]-10H-spiro[acridine-9,1′-cyclohexane]-7-ylmethanol]	Not better than ML67-33	> 38.5 µM	25.9%	
O=C(O)CCN1c2ccc(Br)cc2C2(CCCCC2)c2cc(Br)ccc21 [ML67-147, 3-{2,7-dibromo-10H-spiro[acridine-9,1′-cyclohexane]-10-yl}propanoic acid]	Not better than ML67-33	> 38.5 µM	84.1%	
CS(=O)(=O)NC(=O)CCN1c2ccc(Br)cc2C2(CCCCC2)c2cc(Br)ccc21 [ML67-148, 3-{2,7-dibromo-10H-spiro[acridine-9,1′-cyclohexane]-10-yl}-N-methanesulfonyl-propanamide]	Better than ML67-33; Not better than (ML67-142)	8.6 to 38.5 µM		
C#Cc1ccc(S(=O)(=O)NC(=O)CCN2c3ccc(Br)cc3C3(CCCCC3)c3cc(Br)ccc32)cc1 [ML67-150, 3-{2,7-dibromo-10H-spiro[acridine-9,1′-cyclohexane]-10-yl}-N-(4-ethynyl-benzenesulfonyl) propanamide]	Not better than ML67-33	> 38.5 µM		
O=C(O)CCC(CN1c2ccc(Br)cc2C2(CCCCC2)c2cc(Br)ccc21)C(=O)O (stereo not shown) [ML67-152, 2-{2,7-dibromo-10H-spiro[acridine-9,1′-cyclohexane]-10-ylmethyl} pentanedioic acid]	No better than ML67-33	> 38.5 µM	45%	
